# Laboratory results reported in Sander's compilation of Henry's law constants (doi:10.1016/j.chemosphere.2015.07.075).
# Experiment: Henry solubility constant Hcp at 298.15 K (mol/(m3 Pa))
# Conditions: reference: Copolovici and Niinemets (2015)
row,Structure (SMILES),Henry solubility constant Hcp
1,CC(=O)O[C@H]1C[C@H]2CC[C@]1(C)C2(C)C [bornyl acetate],0.00038
2,C=C(C)[C@H]1C=C2[C@H](C)CC[C@@H]2[C@H](C)CC1 [γ-gurjunene],0.00033
3,CC1=CCC2C3C1C2(C)CCCC3(C)C (stereo not drawn) [α-longipinene],0.00034
4,C=C1CC/C=C(\C)CC[C@H]2[C@H]1CC2(C)C [β-caryophyllene],0.00037
5,CC1=CCC23C[C@H]1C(C)(C)[C@H]2CC[C@@H]3C [α-cedrene],0.00028
6,C/C1=C\CC/C(C)=C/CC(C)(C)/C=C/C1 [α-humulene],0.00029
7,C=C/C(C)=C/C/C=C(\C)CCC=C(C)C [α-farnesene],0.00034

# More lines, now with the values ahead:
row,Henry solubility constant Hcp,Structure (SMILES)
1,0.00029,CC1C=CCC2(C)C3CCC12CC3(C)C (stereo not drawn) [γ-neoclovene]
2,0.00032,C=CC(C)(O)CC/C=C(\C)CCC=C(C)C (stereo not drawn) [nerolidol]
3,0.00032,C=C(C)C1CCC2=CCCC(C)C2(C)C1 (stereo not drawn) [valencene]
4,0.00029,CC1=CCCC2(C)C3CCC12CC3(C)C (stereo not drawn) [α-neoclovene]
5,0.00039,C=C1[C@H]2C[C@H]3[C@@H](C(C)C)CC[C@]1(C)[C@H]3C2 [isosativene]
6,0.00029,C=C1CCCC2(C)C3CCC12CC3(C)C (stereo not drawn) [β-neoclovene]
